The text below walks through data of patent US8637681B2, “Pyrrolyl substituted dihydroindol-2-one derivatives, preparation methods and uses thereof” (Qilu Pharmaceutical Co., Ltd., priority 2010, dated 2014).

Series [1] has as its system arterial ring angiogenesis in rats. Description: Inhibitory actions on arterial ring angiogenesis in rats. The note with it: Rattus norvegicus, area covered by micrangiums vs control well, read-out: Inhibitory rate (%); for inhibition at 0.2 µg/mL: 0.2 μg/ml; for inhibition at 1 µg/mL: 1 μg/ml; for inhibition at 5 µg/mL: 5 μg/ml. Type of series: cell-based. As for the experimental part:
This experiment was conducted by referring to the method described by R. F. Nicosia et al (Nicosia, R. F., et al. Am J Pathol., 1997, 151, 1379-1386). Rats were executed by cervical dislocation. The thoracic aorta was carefully separated, and placed in a container with physiological saline. The excess tissues were carefully cut off. The blood vessels were cut with a pair of ophthalmic scissors to form 1 mm thick vascular ring slices. To a pre-cooled 96-well cell culture plate, one separated vascular ring was placed in the center of each well. 70 μl of pre-molten Matrigel was carefully added to cover the vascular ring, which was incubated at 37° C. for 1 h so as to solidify it. […] The sample was placed in incubator for conventional culture, and each compound was tested at least in two repeated wells, and each test was repeated twice. […] The fresh culture medium was replaced every 3 days, and the drug was changed at the same time. The survival status of vascular rings was observed under microscope, and pictures were taken at the same time. Image Pro Plus software was used to calculate the area covered by micrangiums. The average inhibition rate was calculated by using the formula: inhibition rate (%)=(area of control well−area of drug well)/area of control well×100%.

Series [2] is described as follows: Cytotoxicity test (SRB), A549. Format: cell-based. The following applies: human, A549 non-small cell lung cancer cells. As for the experimental part: (§1) Cytotoxicity of the compounds of the present invention was tested with human non-small cell lung cancer cells A549, human cervical cancer Hela cells, human skin cancer cells A431. The test was performed by referring to the method described by Rusnak et al (Rusnak D. W., et al., Cell Prolif., 2007, 40, 580-94).
(§2) In Dulbecco's Modified Eagle Medium (DMEM) comprising 10% fetal bovine serum, 2 mM glutamine and non-essential amino acids, cells were cultured at 37° C. in 5% CO2 cell incubator. Trypsin/ethylenediamine tetraacetic acid (EDTA) were used to harvest cells in cell culture bottle. The cells were added to a 96-well cell culture plate, 4000/well (0.1 ml medium), adhering wall overnight, 0.1 ml of the diluted solution of the compounds to be tested was added, the final concentration of DMSO was 0.25%. The cell culture plate was incubated at 37° C., 5% CO2 conditions for 72 h. The change of cellular morphology was observed under microscope, and then 50 μl of 50% (mass/volume) trichloroacetic acid (TCA) was added to each well to fix cells. The final concentration of TCA was 10%. It stood for 5 min, than was placed in 4° C. refrigerator for 1 h, the wells of the culture plate were washed with deionized water for 5 times to remove TCA, drained, dried in air until no wet trace was observed. 100 μl of 0.4% (mass/volume) SRB was added to each well, stood at room temperature for 10 min. The liquid in each well was discarded, and then the wells were washed with 1% acetic acid for 5 times, dried in air, extracted with 150 μl of 10 mM Tris base (trihydroxymethylaminomethane, pH 10.5). The absorption at a wavelength of 540 nm was measured. The IC50 (μM) of the compound was calculated using Logit method.

Series [3] in a line: Cytotoxicity test (SRB), Hela. Type of series: cell-based. The following applies: human, Hela cervical cancer cells. How it is done:
Cytotoxicity of the compounds of the present invention was tested with human non-small cell lung cancer cells A549, human cervical cancer Hela cells, human skin cancer cells A431. The test was performed by referring to the method described by Rusnak et al (Rusnak D. W., et al., Cell Prolif., 2007, 40, 580-94). […] Trypsin/ethylenediamine tetraacetic acid (EDTA) were used to harvest cells in cell culture bottle. The cells were added to a 96-well cell culture plate, 4000/well (0.1 ml medium), adhering wall overnight, 0.1 ml of the diluted solution of the compounds to be tested was added, the final concentration of DMSO was 0.25%. The cell culture plate was incubated at 37° C., 5% CO2 conditions for 72 h. […] The absorption at a wavelength of 540 nm was measured. The IC50 (μM) of the compound was calculated using Logit method.

Series [4] in a line: Cytotoxicity test (SRB), A431. Format: cell-based. The following applies: human, A431 skin cancer cells. How it is done: as §1, §2
Series [5] concerns human colon cancer HT 29 transplanted tumor. Description: Nude mice transplanted tumor test. Further details: key to d21 Vave ± SD (average tumor volume): tumor volume TV = ½×a×b² (a, b = major, minor diameter), in mm³. The note with it: for Dead animal number / inhibition in vivo at 80 mg/kg / d21 Wave ± SD (average bodyweight of nude mice) / d21 Vave ± SD (average tumor volume) / d21 RTV ± SD (relative tumor volume): 80 mg/kg intragastrically each day for 20 days; for Dead animal number: dead/total animals; for inhibition in vivo at 80 mg/kg: Mus musculus, HT-29, po, 504 h, (1−T/C)×100%, read-out: Tumor inhibition rate d21 (%); for inhibition in vivo at 80 mg/kg / d21 Wave ± SD (average bodyweight of nude mice) / d21 Vave ± SD (average tumor volume) / d21 RTV ± SD (relative tumor volume): d21; for d0 Wave ± SD (average bodyweight of nude mice): d0, at grouping before administration (baseline); for d21 Vave ± SD (average tumor volume): HT 29 in nude mice; for d21 RTV ± SD (relative tumor volume): RTV=Vt/V0. Format: in vivo, female Balb/cA nude mice. As for the experimental part:
The nude mice transplanted tumor test used female Balb/cA nude mice, and tumor strains were human colon cancer HT 29 strains.
Under sterile condition, eugonic tumor tissues stage were cut into pieces of about 1.5 mm^3, and inoculated at right axillary fossa of the nude mice. The transplanted tumor diameter was measured by vernier caliper, and the animals were randomly grouped after the tumors grew to about 120 mm^3. The positive control group and the compounds group in a dosage of 80 mg/kg were administered intragastrically each day for consecutive 20 days. The negative control group was given equivalent amount of injection water containing 0.1% Tween 80. Tumor diameters and the bodyweight of mice were measured 2-3 times every week. The evaluation indexes observed in the test include relative tumor proliferation rate, bodyweight and general states. The formulation for calculating tumor volume (TV) is: TV=½×a×b^2, wherein a, b represent major diameter and minor diameter of tumor; Relative tumor volume (RTV) was calculated according the results of measurement by the following formula: RTV=Vt/V0, wherein V0 is tumor volume measured when dividing groups for administration, and Vt is tumor volume measured after each administration.

In the case of `CCN(CC)CCC(=O)Nc1c(C)[nH]c(/C=C2\C(=O)Nc3ccc(NS(C)(=O)=O)cc32)c1C` [Compound 8, N-{5-[5-methylsulfonylamino-2-oxo-1,2-dihydro-indol-(3Z)-ylidenemethyl]-2,4-dimethyl-1H-pyrrol-3-yl}-3-(N,N-diethylamino)propionamide], in series [1], the inhibition at 0.2 µg/mL came out at 94%, the inhibition at 1 µg/mL came to 100% and the inhibition at 5 µg/mL worked out at 100%. In series [2], this compound had an IC50 at 72 h greater than 30 µM. In series [3], this compound returned an IC50 at 72 h greater than 30 µM. In series [4], this compound came in with an IC50 at 72 h greater than 30 µM. In series [5], the Dead animal number is 0/6, the inhibition in vivo at 80 mg/kg amounted to 78.9%, the “d0 Wave ± SD (average bodyweight of nude mice)” value (from here on “d0 Wave ± SD”) amounted to 19.2 ± 0.32 and the “d21 Wave ± SD (average bodyweight of nude mice)” value (“d21 Wave ± SD” for short) is 17.8 ± 0.65. In addition, the “d21 RTV ± SD (relative tumor volume)” value in series [5] stood at 1.52 ± 0.56. Besides, the “d21 Vave ± SD (average tumor volume)” value in series [5] (in mm³ (unit assumed)) is listed as 186.0 ± 53.1.

With `Cc1[nH]c(/C=C2\C(=O)Nc3ccc(F)cc32)c(C)c1NC(=O)CCCN(C)C` [Compound 5, N-{5-[5-fluoro-2-oxo-1,2-dihydro-indol-(3Z)-ylidenemethyl]-2,4-dimethyl-1H-pyrrol-3-yl}-4-(N,N-dimethylamino)butyramide], in series [1], the inhibition at 0.2 µg/mL amounted to 93%, the inhibition at 1 µg/mL turned out to be 100% and the inhibition at 5 µg/mL was determined as 100%. The compound further showed an IC50 at 72 h in series [2] greater than 30 µM. This compound also registered an IC50 at 72 h in series [3] greater than 30 µM. The same compound had an IC50 at 72 h in series [4] greater than 30 µM. Further, in series [5], the Dead animal number was 0/6, the inhibition in vivo at 80 mg/kg turned out to be 86.6%, the “d0 Wave ± SD” value turned out to be 18.9 ± 1.00 and the “d21 Wave ± SD” value is on record as 18.6 ± 0.87. For the same compound, the “d21 RTV ± SD (relative tumor volume)” value in series [5] was 0.96 ± 0.42. The “d21 Vave ± SD (average tumor volume)” value in series [5] (in mm³ (unit assumed)) is listed as 111.8 ± 28.2.

`CCN(CC)CC(=O)Nc1c(C)[nH]c(/C=C2\C(=O)Nc3ccc([N+](=O)[O-])cc32)c1C` [Compound 26, N-{5-[5-nitro-2-oxo-1,2-dihydro-indol-(3Z)-ylidenemethyl]-2,4-dimethyl-1H-pyrrol-3-yl}-2-(N,N-diethylamino)acetamide]: in series [1], the inhibition at 0.2 µg/mL turned out to be 93%, the inhibition at 1 µg/mL came out at 100% and the inhibition at 5 µg/mL was found to be 100%. Moreover, the concentration for half-maximal inhibition (IC50) at 72 h in series [2] was greater than 30 µM. In series [3], the IC50 at 72 h was 4.62 µM. In series [4], this compound returned an IC50 at 72 h greater than 30 µM. Further, in series [5], the Dead animal number is reported as 0/6, the inhibition in vivo at 80 mg/kg worked out at 64.8%, the “d0 Wave ± SD” value came to 19.3 ± 0.55 and the “d21 Wave ± SD” value stood at 20.5 ± 0.35. In series [5], the “d21 Vave ± SD (average tumor volume)” value was 305.6 ± 46.7 and the “d21 RTV ± SD (relative tumor volume)” value is reported as 2.53 ± 0.43.

With `CCN(CC)CC(=O)Nc1c(C)[nH]c(/C=C2\C(=O)Nc3ccc(NS(C)(=O)=O)cc32)c1C` [Compound 25, N-{5-[5-methylsulfonylamino-2-oxo-1,2-dihydro-indol-(3Z)-ylidenemethyl]-2,4-dimethyl-1H-pyrrol-3-yl}-2-(N,N-diethylamino)acetamide], in series [1], the inhibition at 0.2 µg/mL was determined as 89%, the inhibition at 1 µg/mL stood at 100% and the inhibition at 5 µg/mL was found to be 100%. The compound further returned an IC50 at 72 h in series [2] greater than 30 µM. In series [3], this compound returned an IC50 at 72 h greater than 30 µM. The 50% inhibitory concentration (IC50) at 72 h in series [4] amounted to 6.57 µM.

For the compound `Cc1[nH]c(/C=C2\C(=O)Nc3ccc(F)cc32)c(C)c1NC(=O)CN1CCN(C)CC1` [Compound 15, N-{5-[5-fluoro-2-oxo-1,2-dihydro-indol-(3Z)-ylidenemethyl]-2,4-dimethyl-1H-pyrrol-3-yl}-2-(4-methylpiperazin-1-yl)acetamide], in series [1], the inhibition at 0.2 µg/mL turned out to be 89%, the inhibition at 1 µg/mL came out at 100% and the inhibition at 5 µg/mL came to 100%. This compound yielded an IC50 at 72 h in series [2] greater than 30 µM. The compound further showed an IC50 at 72 h in series [3] greater than 30 µM. Further, the IC50 at 72 h in series [4] is greater than 30 µM.

Take `CCN(CC)CC(=O)Nc1c(C)[nH]c(/C=C2\C(=O)Nc3cc(OC)ccc32)c1C` [Compound 23, N-{5-[6-methoxy-2-oxo-1,2-dihydro-indol-(3Z)-ylidenemethyl]-2,4-dimethyl-1H-pyrrol-3-yl}-2-(N,N-diethylamino)acetamide]: in series [1], the inhibition at 0.2 µg/mL turned out to be 90%. Further, in series [1], the inhibition at 1 µg/mL amounted to 100%. Further, the inhibition at 5 µg/mL in series [1] was 100%. Besides, the 50% inhibitory concentration (IC50) at 72 h in series [2], in series [3] and in series [4] was greater than 30 µM throughout.

On to `Cc1[nH]c(/C=C2\C(=O)Nc3ccc(F)cc32)c(C)c1NC(=O)CCN1CCCC1` [Compound 14, N-{5-[5-fluoro-2-oxo-1,2-dihydro-indol-(3Z)-ylidenemethyl]-2,4-dimethyl-1H-pyrrol-3-yl}-3-(tetrahydropyrrol-1-yl)propionamide], for which, in series [1], the inhibition at 0.2 µg/mL was 88%. Besides, the inhibition at 1 µg/mL in series [1] stood at 100%. Also, the inhibition at 5 µg/mL in series [1] is 100%. Also, the IC50 at 72 h in series [2], in series [3] and in series [4] was greater than 30 µM each time.

Regarding `CCN(CC)CC(=O)Nc1c(C)[nH]c(/C=C2\C(=O)Nc3cc(C)ccc32)c1C` [Compound 27, N-{5-[6-methyl-2-oxo-1,2-dihydro-indol-(3Z)-ylidenemethyl]-2,4-dimethyl-1H-pyrrol-3-yl}-2-(N,N-diethylamino)acetamide], the inhibition at 0.2 µg/mL in series [1] was determined as 78%. Also, in series [1], the inhibition at 1 µg/mL was found to be 95%. For the same compound, the inhibition at 5 µg/mL in series [1] worked out at 100%. Also, the IC50 at 72 h in series [2], in series [3] and in series [4] was greater than 30 µM each time.
